Tests used:
Type in all cases: cell-based
human TLR4 [1] = biological target: T1, human TLR4 (Homo sapiens, UniProt O00206+Q9Y6Y9); assay: Competitive vs non-competitive antagonist type: agonist diluted in a fixed concentration of inhibitor, human TLR4 HEK-Blue SEAP; set-up: host or cells: HEK-Blue (HEK293-derived) reporter cells; settings: fixed ML3 3 μM, ML4A 3 μM or Lipid IVa 0.1 μM; agonist PHAD or 3D-6A-PHAD diluted from 10 μM
Experimental: (§1) SEAP assays were performed to evaluate the extent to which TLR4 signaling was activated in HEK-Blue reporter cells expressing mouse or human receptors (CD14, MD2 and TLR4). Reporter cells were harvested when 70–80% confluent and plated in 96-well, flat-bottom microtiter plates either 1 h, one day or two days (5 × 10^4, 4 × 10^4 or 2 × 10^4 cells/well, respectively) before addition of TLR4 agonists for 18–24 h. Culture supernatants were transferred to U-bottom microtiter plates, centrifuged and transferred again to microtiter plates to ensure reporter cells were not present. The culture supernatants were added to QUANTI-BLUE substrate following instructions provided by the manufacturer (InvivoGen cat. nos. rep-qbl or rep-qbs) and incubated at 37°C in a tissue culture incubator. At successive intervals beginning 10 min after mixing the supernatants and substrate, the plates were placed in an Emax plate reader (Molecular Devices LLC) and optical density was measured at visible light wavelength […] (OD650). The shortest incubations at which dose response curve fits produced maximal R^2 ‘goodness of fit’ values, as determined by GraphPad Prism software, were used for analysis.
Pharmacological profiles of the TLR4 reagents were generated by performing dose response curves in one of four formats. 1) Agonist potency and efficacy (EC50 and height of dose plateau, respectively) were measured by diluting TLR4 reagents successively in complete culture medium [DMEM or RPMI supplemented with fetal bovine serum (FBS) or RPMI supplemented with human serum, depending on cell-type]. […] 2) Mixed agonist–antagonist potency and efficacy were measured by mixing a TLR4 agonist with a candidate antagonist at a fixed ratio and then performing half-log step dilutions before treating HEK reporter cells. […] 4) Inhibitory potency (IC50) was measured by diluting antagonists within a fixed concentration of a reference agonist, treating HEK reporter cells and performing SEAP assays as described.

human THP-1 cells = assay: TNFα secretion (ELISA) by THP-1 cells; settings: THP-1, PMA-treated, 18-24 h
Experimental: (§2) Human and mouse HEK-Blue reporter cells express human or mouse CD14, MD2, and TLR4 and secreted embryonic alkaline phosphatase (SEAP) under control of a promoter with binding sites for NFκB and AP-1 transcription factors (InvivoGen cat. nos. hkb-htlr4 and hkb-mtlr4). Cells were cultured as directed by the supplier, with the exception that Glutamax (ThermoFisher cat. no. 10569010) was used in place of L-glutamine, and TrypLE Express (ThermoFisher cat. no. 12605010) was used to release adherent cells for each passage. […]
(§3) ELISA was performed to measure TNFα secretion by cell-lines and primary cells exposed to TLR4 reagents as a measure of receptor activation. […] Human or mouse TNα was quantified using ELISA kits as directed by the kit supplier (eBioscience cat. nos. 88-7324-77 and 88-7324-88, respectively) using an Emax plate reader and SoftMax Pro analytical software (Molecular Devices, LLC). […]
(§4) Pharmacological profiles of the TLR4 reagents were generated by performing dose response curves in one of four formats. 1) Agonist potency and efficacy (EC50 and height of dose plateau, respectively) were measured by diluting TLR4 reagents successively in complete culture medium [DMEM or RPMI supplemented with fetal bovine serum (FBS) or RPMI supplemented with human serum, depending on cell-type]. […]

human TLR4 [2] = biological target: T1, human TLR4; assay: Mixed agonist-antagonist dose curves at fixed ratio, human TLR4 HEK-Blue SEAP; set-up: host or cells: HEK-Blue (HEK293-derived) reporter cells
Experimental: as §1
Pharmacological profiles of the TLR4 reagents were generated by performing dose response curves in one of four formats. 1) Agonist potency and efficacy (EC50 and height of dose plateau, respectively) were measured by diluting TLR4 reagents successively in complete culture medium [DMEM or RPMI supplemented with fetal bovine serum (FBS) or RPMI supplemented with human serum, depending on cell-type]. Half-log step dilutions were performed in 96-well, U-bottom microtiter plates using a multichannel pipette to transfer and mix the suspensions, with fresh tips used for each dilution step. One-tenth (20 μl) volumes from wells of the dilution plate were then transferred to wells containing cells that had been plated in nine-tenth volumes (180 μl) of culture medium. 2) Mixed agonist–antagonist potency and efficacy were measured by mixing a TLR4 agonist with a candidate antagonist at a fixed ratio and then performing half-log step dilutions before treating HEK reporter cells. Analysis of values obtained from SEAP assays of culture supernatants was then performed as described for preparations containing agonist alone, above. 3) Competitive vs allosteric or non-competitive antagonist type was evaluated by diluting a reference agonist within a fixed concentration of a candidate inhibitor in half-log steps, treating HEK reporter cells, performing SEAP assays and then analyzing the data as described for agonist assays, above. Competitive antagonists are characterized by values that reach the same dose plateau as for a reference, full agonist, while shifting potency to higher EC50 values. […] 4) Inhibitory potency (IC50) was measured by diluting antagonists within a fixed concentration of a reference agonist, treating HEK reporter cells and performing SEAP assays as described.

mouse RAW264.7 cells = assay: TNFα secretion (ELISA) by RAW264.7 cells; settings: RAW264.7, 18-24 h
Experimental: as §2, §3, §4

[3] = mixed with 3D-6A-PHAD at 5:1 antagonist:agonist
[4] = mixed with PHAD, ML4A up to 30:1 and 60:1 antagonist:agonist

T1 sequence (O00206 24-839): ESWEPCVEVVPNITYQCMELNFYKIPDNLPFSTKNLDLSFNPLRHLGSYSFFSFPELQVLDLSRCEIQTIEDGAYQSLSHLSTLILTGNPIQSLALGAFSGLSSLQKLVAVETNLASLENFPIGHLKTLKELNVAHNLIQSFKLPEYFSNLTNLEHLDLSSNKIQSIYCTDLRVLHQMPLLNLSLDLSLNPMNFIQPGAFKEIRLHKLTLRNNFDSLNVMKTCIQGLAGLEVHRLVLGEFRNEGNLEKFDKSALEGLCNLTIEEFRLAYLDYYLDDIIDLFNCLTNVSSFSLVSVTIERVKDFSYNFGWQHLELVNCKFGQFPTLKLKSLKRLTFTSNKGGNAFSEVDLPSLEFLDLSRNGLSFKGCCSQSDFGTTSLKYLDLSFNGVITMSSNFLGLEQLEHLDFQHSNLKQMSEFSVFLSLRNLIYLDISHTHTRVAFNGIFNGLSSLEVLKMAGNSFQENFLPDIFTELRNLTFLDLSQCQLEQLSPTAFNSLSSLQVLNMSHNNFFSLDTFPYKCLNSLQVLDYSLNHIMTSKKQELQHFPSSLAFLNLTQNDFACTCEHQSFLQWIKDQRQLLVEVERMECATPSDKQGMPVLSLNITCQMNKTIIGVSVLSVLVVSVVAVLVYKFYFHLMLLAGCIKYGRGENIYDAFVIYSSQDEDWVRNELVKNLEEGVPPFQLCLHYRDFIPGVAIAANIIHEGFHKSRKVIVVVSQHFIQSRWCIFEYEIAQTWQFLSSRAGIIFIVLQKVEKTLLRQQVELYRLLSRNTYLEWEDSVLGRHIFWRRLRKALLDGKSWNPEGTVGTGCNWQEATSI
T1 sequence (Q9Y6Y9 17-160 limits assumed): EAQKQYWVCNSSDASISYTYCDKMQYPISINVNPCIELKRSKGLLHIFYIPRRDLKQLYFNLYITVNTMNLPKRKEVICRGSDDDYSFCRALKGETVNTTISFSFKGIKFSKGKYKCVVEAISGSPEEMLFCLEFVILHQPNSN

Compound	antagonist type (human TLR4 [1])	agonist profile, TNFα production (human THP-1 cells)	effect on agonist dose curve in fixed-ratio mixture (human TLR4 [2]; [3])	effect on agonist dose curve in fixed-ratio mixture (human TLR4 [2]; [4])	agonist profile, TNFα production (mouse RAW264.7 cells)
CCCCCCCCCCCC(=O)OC(CCCCCCCCCCC)CC(=O)NC1C(OCC2OC(O)C(NC(=O)CC(O)CCCCCCCCCCC)C(O)C2O)OC(CO)C(OP(=O)(O)O)C1O (stereo not shown) [ML3]	competitive antagonists of human TLR4	largely inactive	appeared to limit its activity	very modestly reduced TLR4 stimulatory activity	largely inactive
CCCCCCCCCCCC(=O)OC(CCCCCCCCCCC)CC(=O)NC1C(OCC2OC(O)C(NC(=O)CC(O)CCCCCCCCCCC)C(O)C2O)OC(CO)C(OP(=O)(O)O)C1OC(=O)CC(O)CCCCCCCCCCC (stereo not shown) [ML4A]	competitive antagonists of human TLR4	–	appeared to limit its activity	very modestly reduced TLR4 stimulatory activity	–
CCCCCCCCCCCCCCCC(=O)OC(CCCCCCCCCCC)CC(=O)NC1C(O)OC(COC2OC(CO)C(OP(=O)(O)O)C(O)C2NC(=O)CC(CCCCCCCCCCC)OC(=O)CCCCCCCCCCC)C(O)C1O (stereo not shown) [ML4B]	–	largely inactive	–	–	largely inactive

From paper PMC7596181 (Frontiers in Immunology, 2020)
